According to patent US8034797B2, “Triazene compounds for the treatment of cancer” (Trin Therapeutics GmbH, priority 2007, dated 2011):
In brackets after ≈: the same amount, converted by molar mass. Where a name gives a salt, the structure may show the parent alone.

Columns and labels:
MAXF 401 = MAXF 401 breast tumour xenograft in nude mice; type: in vivo; conditions: for Mortality: deaths/animals
Experimental: All the tests were carried out using female nude mice under standard conditions for the keeping of animals with controlled illumination and temperature. The animals were given water and food as desired.
(§1) The increase in the volume of the individual tumours was measured using microcallipers, and the size of the tumour was calculated according to the formula a*b^2/2 (where a is the largest diameter of the tumour and b is the vertical axis). When the tumour volume had increased to 80-120 mm^3, the animals were allocated at random into test groups of in each case 6 animals.
The test compounds (in the form of sodium salts) were dissolved in a saline solution, and 5% Klucel (hydroxypropylcellulose) was added in order to dissolve all the test compounds in the same carrier. […] A volume of 10 ml/kg body weight was injected. Animals that received only the carrier served as control. The test compounds were treated according to the scheme of twice weekly administration over a period of […]. The tumour volume and the body weight were checked twice weekly, and the relative tumour volumes were calculated as the ratio of tumour size to body weight.
On the basis of the relative tumour volumes of the animals treated with the test compounds compared with the tumour volumes of the controls treated only with the carrier, the T/C values were calculated and were used as the index of anti-tumour activity.
Subcutaneous implantation of the tumour and the determination of the tumour volume were carried out as described hereinbefore. The above-mentioned salts of the test substance were administered by ip injection twice weekly in the mentioned doses in the form of an aqueous solution, over a period of 4 weeks. […]
Subcutaneous implantation of the tumour and the determination of tumour volumes were carried out as described hereinbefore. The test substance was administered by ip injection twice weekly in the mentioned doses in the form of the sodium salt as an aqueous solution, over a period of 4 weeks.

Solubility in water = type: physicochemical; conditions: for solubility: water
MEXF 462 = MEXF 462 melanoma xenograft model; type: in vivo, nude mice; conditions: for outcome of treatment: equimolar doses ip twice weekly over 4 weeks
Experimental: as §1, with “Breast tumours (MAXF 401) were implanted subcutaneously into the rear members of the mice aged 10 weeks. The” for “The”, “animals. […]” for “animals.”
The anti-tumour activity of the compounds was determined in the MEXF 462 xenograft tumour model in the nude mouse. Subcutaneous implantation of the tumour and the determination of tumour volumes were carried out as described hereinbefore. Groups of in each case 8 animals were used.
Equimolar amounts of the compound of Example 8 were administered ip twice weekly in the form of a 5% DMSO solution over the mentioned period.
The progression over time of the anti-tumour action, expressed in % of the tumour volume at the beginning of the test, over the period of therapy is shown in Table 3.

Tumour-carrying mice = experiment: Nephrological tolerability (kidney post-mortem and histology); type: in vivo
Experimental: A control group was treated only with the carrier according to a twice weekly treatment scheme.
When the 28-day treatment period had ended, a post-mortem was carried out on the mice. […] The kidneys of all the animals in the test groups were removed by operation, fixed in formalin according to standard methods, embedded in paraffin and processed for HE staining.

Solubility in DMSO = type: physicochemical; conditions: organic solvent or mixture, room temperature
[1] = room temperature, read-out: solubility in water at room temperature
[2] = sodium salts ip, equimolar to 350 mg/kg of comparison compound, twice weekly over 5 weeks, 100% = no activity
[3] = sodium salts ip, equimolar to 350 mg/kg of comparison compound, twice weekly over 5 weeks
[4] = kidney histology after 28-day twice weekly ip treatment, equimolar to 450 mg of stock composition, affected/animals

## CN(C)/N=N/c1ccc(C(=O)c2ccc(OCC(=O)NCC(=O)O)cc2)cc1 [TRIS salt]
MAXF 401; TRIS salt ip twice weekly, equimolar doses of 360, 400 and 500 mg/kg of the sodium salt, all doses
  remission: complete remission
Solubility in water; 25° C.
  solubility in water at 25° C.: about 250 g/litre
Solubility in water; [1]
  solubility: 250 mg/mL

## CN(C)/N=N/c1ccc(C(=O)c2ccc(OCC(=O)NCC(=O)O)cc2)cc1 [Example 4a]
MAXF 401; 400 mg/kg sodium salt ip twice weekly, after 4 weeks' therapy
  T/C value: 12
MAXF 401; 500 mg/kg sodium salt ip twice weekly, within 3 weeks of treatment
  remission: complete remission
Solubility in water; 0.9% NaCl
  salting-out effect in 0.9% NaCl: pronounced salting-out effect
Solubility in water; 25° C.
  solubility in water at 25° C.: about 4 g/litre
Solubility in water; 25° C.; listed as Example 4a)
  solubility in water at 25° C.: 4 mg/mL (≈ 10.4 mM)

## CN(C)/N=N/c1ccc(C(=O)c2ccc(OCCC(=O)NCC(=O)O)cc2)cc1 [Example 2, {3-[4(4-[(1E)-3,3-dimethyl-1-triazenyl]-benzoyl)-phenoxyl]propionylamino} acetic acid]
MAXF 401; [2]
  T/C value: 3.4%
MAXF 401; [3]
  Mortality: 0/6

## COC(=O)CNC(=O)CCOc1ccc(C(=O)c2ccc(/N=N/N(C)C)cc2)cc1 [Example 1]
other
  melting point: 104 to 105 °C

## CN(C)/N=N/c1ccc(C(=O)c2ccc(OCCC(=O)NCCS(=O)(=O)[O-])cc2)cc1.[Na+] [Example 9]
Solubility in water; [1]
  solubility: 666 mg/mL

## CN(C)N=Nc1ccc(C(=O)c2ccc(OCC(=O)[O-])cc2)cc1.[Na+] [Preparation 1]
Solubility in water; recrystallisation from water, read-out: Solubility (converted)
  solubility: 40 mg/mL

## CN(C)/N=N/c1ccc(C(=O)c2ccc(OCCC(=O)NC(CCC(N)=O)C(=O)O)cc2)cc1 (centres unmarked) [Example 7, 4-carbamoyl-2-{3-[4-(4-[(1E)-3,3-dimethyl-1-triazenyl]-benzoyl)-phenoxy]-propionylamino}-butanoic acid sodium salt]
MEXF 462; day 0, 350 mg/kg ip twice weekly
  tumour volume in % of the tumour volume at the beginning of the test, Mean: 100%
MEXF 462; day 3, 350 mg/kg ip twice weekly
  tumour volume in % of the tumour volume at the beginning of the test, Mean: 278%
MEXF 462; day 7, 350 mg/kg ip twice weekly
  tumour volume in % of the tumour volume at the beginning of the test, Mean: 172%
MEXF 462; day 11, 350 mg/kg ip twice weekly
  tumour volume in % of the tumour volume at the beginning of the test, Mean: 73%
MEXF 462; day 14, 350 mg/kg ip twice weekly
  tumour volume in % of the tumour volume at the beginning of the test, Mean: 49%
MEXF 462; day 18, 350 mg/kg ip twice weekly
  tumour volume in % of the tumour volume at the beginning of the test, Mean: 24%
MEXF 462; day 21, 350 mg/kg ip twice weekly
  tumour volume in % of the tumour volume at the beginning of the test, Mean: 6%
MEXF 462; day 25, 350 mg/kg ip twice weekly
  tumour volume in % of the tumour volume at the beginning of the test, Mean: 2%
MEXF 462; day 28, 350 mg/kg ip twice weekly
  tumour volume in % of the tumour volume at the beginning of the test, Mean: 0.3%
MEXF 462
  outcome of treatment: complete remission
Solubility in water; 25 °C, 25° C., read-out: solubility in water at 25° C.
  solubility: ~400 mg/mL

## CN(C)N=Nc1ccc(C(=O)c2ccc(OCC(=O)[O-])cc2)cc1.[Na+] [Ex. 30 of DE 1793115A]
MAXF 401; 350 mg/kg ip
  reduction in the tumour volume development: 50%
MAXF 401; [2]
  T/C value: 48.5%
MAXF 401; [3]
  Mortality: 2/6
Tumour-carrying mice; after 28-day treatment period
  macroscopic findings of the kidneys at post-mortem: macroscopic changes (swelling, local discolouration) of the kidneys
  renal histology finding: Marked focal tubular necrosis of the kidneys
Tumour-carrying mice; [4]
  Acute single-cell necrosis: 4/9
  Focal tubular necrosis: 3/9

## CN(C)/N=N/c1ccc(C(=O)c2ccc(OCC(=O)NCC(=O)O)cc2)cc1 [Example 4, {2-[4-(4-[(1E)-3,3-dimethyl-1-triazenyl]-benzoyl)-phenoxy]-acetylamino}acetic acid]
MAXF 401; [2]
  T/C value: 12.6%
MAXF 401; [3]
  Mortality: 0/6

## CN(C)/N=N/c1ccc(C(=O)c2ccc(OCCC(=O)NCC(N)=O)cc2)cc1 [Example 8]
MEXF 462; day 0, 285 mg/kg ip twice weekly, 5% DMSO solution
  tumour volume in % of the tumour volume at the beginning of the test, Mean: 100%
MEXF 462; day 3, 285 mg/kg ip twice weekly, 5% DMSO solution
  tumour volume in % of the tumour volume at the beginning of the test, Mean: 293%
MEXF 462; day 7, 285 mg/kg ip twice weekly, 5% DMSO solution
  tumour volume in % of the tumour volume at the beginning of the test, Mean: 369%
MEXF 462; day 11, 285 mg/kg ip twice weekly, 5% DMSO solution
  tumour volume in % of the tumour volume at the beginning of the test, Mean: 174%
MEXF 462; day 14, 285 mg/kg ip twice weekly, 5% DMSO solution
  tumour volume in % of the tumour volume at the beginning of the test, Mean: 134%
MEXF 462; day 18, 285 mg/kg ip twice weekly, 5% DMSO solution
  tumour volume in % of the tumour volume at the beginning of the test, Mean: 107%
MEXF 462; day 21, 285 mg/kg ip twice weekly, 5% DMSO solution
  tumour volume in % of the tumour volume at the beginning of the test, Mean: 151%
MEXF 462; day 25, 285 mg/kg ip twice weekly, 5% DMSO solution
  tumour volume in % of the tumour volume at the beginning of the test, Mean: 172%
MEXF 462; day 28, 285 mg/kg ip twice weekly, 5% DMSO solution
  tumour volume in % of the tumour volume at the beginning of the test, Mean: 271%
MEXF 462
  outcome of treatment: pronounced slowing down of tumour growth
Solubility in DMSO
  solubility: 833 mg/mL (≈ 2100 mM)
